biological target: T1, purified human HDAC6 (Homo sapiens, UniProt Q9UBN7); assay: HDAC6 Enzyme Assay; format: biochemical; conditions: compound concentration 0.37 μM, read-out: Percent Inhibition
T1 construct: purchased BPS Bioscience 5006
T1 sequence (Q9UBN7 1-1215): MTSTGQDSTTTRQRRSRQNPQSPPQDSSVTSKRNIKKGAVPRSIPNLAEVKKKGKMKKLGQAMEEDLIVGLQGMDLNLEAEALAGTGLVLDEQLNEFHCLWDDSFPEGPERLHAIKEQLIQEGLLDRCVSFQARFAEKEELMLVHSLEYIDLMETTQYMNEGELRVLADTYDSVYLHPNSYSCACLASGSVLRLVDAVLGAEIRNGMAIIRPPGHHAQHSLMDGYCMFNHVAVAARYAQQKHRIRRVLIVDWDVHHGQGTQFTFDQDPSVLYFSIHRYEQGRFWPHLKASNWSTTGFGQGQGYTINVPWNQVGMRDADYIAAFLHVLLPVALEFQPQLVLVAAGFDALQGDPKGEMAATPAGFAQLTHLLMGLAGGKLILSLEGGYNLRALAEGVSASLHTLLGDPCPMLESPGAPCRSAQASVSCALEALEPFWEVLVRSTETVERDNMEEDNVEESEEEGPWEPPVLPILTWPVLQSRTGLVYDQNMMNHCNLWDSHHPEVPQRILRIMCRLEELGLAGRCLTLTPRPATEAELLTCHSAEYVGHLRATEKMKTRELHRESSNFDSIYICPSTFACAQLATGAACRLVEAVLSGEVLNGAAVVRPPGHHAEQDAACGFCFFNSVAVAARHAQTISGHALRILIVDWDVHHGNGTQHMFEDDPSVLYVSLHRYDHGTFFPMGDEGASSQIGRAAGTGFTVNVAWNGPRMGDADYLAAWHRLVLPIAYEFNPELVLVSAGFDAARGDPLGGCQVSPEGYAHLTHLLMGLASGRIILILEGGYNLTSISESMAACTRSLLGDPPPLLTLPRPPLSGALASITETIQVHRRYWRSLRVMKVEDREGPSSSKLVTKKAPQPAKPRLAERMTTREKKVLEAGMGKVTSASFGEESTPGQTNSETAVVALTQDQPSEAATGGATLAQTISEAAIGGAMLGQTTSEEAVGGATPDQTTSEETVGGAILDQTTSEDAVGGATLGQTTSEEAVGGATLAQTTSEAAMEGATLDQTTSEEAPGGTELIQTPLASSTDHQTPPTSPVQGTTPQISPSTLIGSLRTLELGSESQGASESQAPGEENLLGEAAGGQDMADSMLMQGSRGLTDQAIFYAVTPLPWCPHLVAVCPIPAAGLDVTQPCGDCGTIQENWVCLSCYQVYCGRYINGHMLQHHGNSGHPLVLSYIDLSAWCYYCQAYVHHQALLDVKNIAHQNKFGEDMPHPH
Outline: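 Purified human HDAC6 incubated 1 h at 30° C with Ac-Arg-Gly-Lys(Ac)-AMC peptide plus compound or DMSO; stopped with trichostatin A. Deacetylated product trypsin-digested, released AMC read by fluorescence (Ex 340/Em 460 nm). Percent inhibition at one concentration or IC50 from curves relative to DMSO controls.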

How did the inhibition at 0.37 µM turn out when `O=C(NO)c1ccc2ncn(Cc3cccc(N4CCOCC4)c3)c(=O)c2c1` [Compound I-114, N-hydroxy-3-(3-morpholin-4-ylbenzyl)-4-oxo-3,4-dihydroquinazoline-6-carboxamide] was run?
The inhibition at 0.37 µM was 93.8%.

Which inhibition at 0.37 µM does the source give for `O=C(NO)c1ccc2ncn(Cc3cccc(-c4ccc(S(=O)(=O)N5CCCCC5)cc4)c3)c(=O)c2c1` [Compound I-254, N-hydroxy-4-oxo-3-{[4′-(piperidin-1-ylsulfonyl)biphenyl-3-yl]methyl}-3,4-dihydroquinazoline-6-carboxamide] here?
Its inhibition at 0.37 µM is 94%.

For `O=C(NO)c1ccc2c(Br)cn(Cc3ccccc3)c(=O)c2c1` [Compound I-292, 2-benzyl-4-bromo-N-hydroxy-1-oxo-1,2-dihydroisoquinoline-7-carboxamide], which inhibition at 0.37 µM is on record?
Its inhibition at 0.37 µM is 82.8%.

For `O=C(NO)c1ccc2c(=O)[nH]c(CCc3ccccc3)nc2c1` [Compound I-408, N-hydroxy-4-oxo-2-(2-phenylethyl)-3,4-dihydroquinazoline-7-carboxamide], which inhibition at 0.37 µM is on record?
Its inhibition at 0.37 µM is 94.9%.

For `O=C(NO)c1ccc2ncn(Cc3cccc(-c4cccc(C(F)(F)F)c4)c3)c(=O)c2c1` [Compound I-46, N-hydroxy-4-oxo-3-{[3′-(trifluoromethyl)biphenyl-3-yl]methyl}-3,4-dihydroquinazoline-6-carboxamide], which inhibition at 0.37 µM is on record?
Its inhibition at 0.37 µM is 94.4%.

With `Cc1noc(C)c1-c1cccc(CCn2cnc3ccc(C(=O)NO)cc3c2=O)c1` [Compound I-336, 3-{2-[3-(3,5-dimethylisoxazol-4-yl)phenyl]ethyl}-N-hydroxy-4-oxo-3,4-dihydroquinazoline-6-carboxamide] as the compound, how does the inhibition at 0.37 µM read?
The inhibition at 0.37 µM was 90.5%.

same assay, conditions: compound concentration 0.412 μM, read-out: Percent Inhibition

Which inhibition at 0.412 µM does the source give for `O=C(NO)c1ccc2ccn(Cc3ccc(F)cc3)c(=O)c2c1` [Compound I-76, 2-(4-fluorobenzyl)-N-hydroxy-1-oxo-1,2-dihydroisoquinoline-7-carboxamide] here?
Its inhibition at 0.412 µM is 93.8%.

Which inhibition at 0.412 µM does the source give for `O=C(NO)c1ccc2ccn(Cc3ccc4nonc4c3)c(=O)c2c1` [Compound I-290, 2-(2,1,3-benzoxadiazol-5-ylmethyl)-N-hydroxy-1-oxo-1,2-dihydroisoquinoline-7-carboxamide] here?
Its inhibition at 0.412 µM is 98.5%.

Which inhibition at 0.412 µM does the source give for `CC(C)(C)c1cccc(OCc2nc3cc(C(=O)NO)ccc3c(=O)[nH]2)c1` [Compound I-17, 2-[(3-tert-butylphenoxy)methyl]-N-hydroxy-4-oxo-3,4-dihydroquinazoline-7-carboxamide] here?
Its inhibition at 0.412 µM is 30.6%.

Which inhibition at 0.412 µM does the source give for `O=C(NO)c1ccc2ccn(CCOc3ccc(OCc4ccccc4)cc3)c(=O)c2c1` [Compound I-270, 2-{2-[4-(benzyloxy)phenoxy]ethyl}-N-hydroxy-1-oxo-1,2-dihydroisoquinoline-7-carboxamide] here?
The inhibition at 0.412 µM was 83.4%.

How did the inhibition at 0.412 µM turn out when `COc1ccc(CCn2ccc3ccc(C(=O)NO)cc3c2=O)cc1` [Compound I-285, N-hydroxy-2-[2-(4-methoxyphenyl)ethyl]-1-oxo-1,2-dihydroisoquinoline-7-carboxamide] was run?
The inhibition at 0.412 µM was 95.3%.

Which inhibition at 0.412 µM does the source give for `CCCC(C)n1ccc2ccc(C(=O)NO)cc2c1=O` (stereo not shown) [Compound I-44, N-hydroxy-2-(1-methylbutyl)-1-oxo-1,2-dihydroisoquinoline-7-carboxamide] here?
Its inhibition at 0.412 µM is 91.8%.

Which inhibition at 0.412 µM does the source give for `Cc1ccc(Cn2ccc3ccc(C(=O)NO)cc3c2=O)cc1F` [Compound I-54, 2-(3-fluoro-4-methylbenzyl)-N-hydroxy-1-oxo-1,2-dihydroisoquinoline-7-carboxamide] here?
The inhibition at 0.412 µM was 94.5%.

`CC(C)(C)OC(=O)Nc1cccc(Cn2ccc3ccc(C(=O)NO)cc3c2=O)c1` [Compound I-266, tert-butyl (3-{[7-[(hydroxyamino)carbonyl]-1-oxoisoquinolin-2(1H)-yl]methyl}phenyl)carbamate] was tested. Which inhibition at 0.412 µM did it give?
The inhibition at 0.412 µM was 87.9%.

With `O=C(NO)c1ccc2ncn(Cc3cccc(Cl)c3)c(=O)c2c1` [Compound I-127, 3-(3-chlorobenzyl)-N-hydroxy-4-oxo-3,4-dihydroquinazoline-6-carboxamide] as the compound, how does the inhibition at 0.412 µM read?
Its inhibition at 0.412 µM is 96.1%.

With `O=C(NO)c1ccc2c(=O)n(CCCc3ccccc3)cnc2c1` [Compound I-74, N-hydroxy-4-oxo-3-(3-phenylpropyl)-3,4-dihydroquinazoline-7-carboxamide] as the compound, how does the inhibition at 0.412 µM read?
The inhibition at 0.412 µM was 94.8%.
